In patent publication US4469704A, “2,3-Butanediol diester derivatives, process for producing the same, and an antiulcer drug containing the same” (SS Pharmaceutical Co., Ltd., priority 1980, dated 1984):
Like-named read-outs stand apart in the source and are kept apart here.

Legend:
ulcer = test: Antiulcer action: inhibition of indomethacin-induced gastric ulcer (ulcer index) in rats; format: in vivo, Wister male rats; conditions: Rattus norvegicus, 1 h before indomethacin (25 mg/kg orally), read-out: Inhibition ratio
Procedure: Wister male rats each weighing about 200 g were given, after fasting for 24 hours, orally 25 mg/kg of indomethacin suspended in 1% aq. solution of sodium carboxymethylcellulose. Five hours later, 1 ml of physiological saline containing 2% brilliant blue was injected intravenously on their tails, and 10 minutes later, they were slaughtered and their stomachs were removed. After fixation by injecting 12 ml of 1% formalin aq. solution, the stomachs were extended on a flat plate and the injured parts on the stomach was measured with slide calipers. The sum of the lengths in mm was regarded as the ulcer index.
The test compound was emulsified or suspended in physiological saline containing one drop of polysolvate 80, and this was given orally or subcutaneously on the back one hour before administration of indomethacin.
The ulcer inhibition ratio was obtained from the following formula.
Inhibition ratio (%)=A/B×100
A: (ulcer index of control group)--(ulcer index of test group given the test compound)
B: (ulcer index of control group)

ddy male mice = test: Acute toxicity, intraperitoneal, 7 days observation; format: in vivo; conditions: 1000 mg/kg intraperitoneally, groups of five ddy male mice
Procedure: (§1) ddy male mice, arranged in groups each consisting of five mice, were given intraperitoneally 1000 mg/kg of the test compounds Nos. 1-4, 8-10, 14-18, 21, 22, 24, 25, 28, 31, 34, 35, 37, 45, 46, 48, 54, 57, 60, 62, 64, 68, 70, and 71 (as shown in Table 1) dissolved in cotton seed oil.

[1] = as above; format: in vivo; conditions: mouse, ip; ddy male mice, intraperitoneally, dissolved in cotton seed oil, observation for seven days
Procedure: as §1

tumor = conditions: Japanese Patent Publication No. 36-13349; cited from earlier work

Compound	inhibition in vivo at 200 mg/kg (ulcer; sc, subcutaneously, 5 rats)	survival / anomaly after seven days (ddy male mice)	LD50 at 168 h [1]	inhibition in vivo at 200 mg/kg (ulcer; po, orally, 4 rats)	inhibition in vivo at 300 mg/kg (ulcer; sc, 300 mg/kg, subcutaneously, 5 rats)	antitumor effect (tumor)
CCCCCCCC(=O)OC(C)C(C)OC(=O)CCCCCCC (centres unmarked) [Compound No. 1]	92%					
CCCCCCCCC(=O)OC(C)C(C)OC(=O)CCCCCCCC (centres unmarked) [Compound No. 2]	90%					
CCCCCCCCCC(=O)OC(C)C(C)OC(=O)CCCCCCCCC (centres unmarked) [Compound No. 3]	50%					
CCCCCCCCCCC(=O)OC(C)C(C)OC(=O)CCCCCCCCCC (centres unmarked) [Compound No. 4]	74%					
CCCCCCCCCCCCCC(=O)OC(C)C(C)OC(=O)CCCCCCCCCCCCC (centres unmarked) [Compound No. 6]	57%					
CCCCCCCCCCCCCCCC(=O)OC(C)C(C)OC(=O)CCCCCCCCCCCCCCC (centres unmarked) [Compound No. 7]	30%					
CCCCCC(=O)OC(C)C(C)OC(=O)C=Cc1ccccc1 (centres unmarked) [Compound No. 22]	91%	all the mice lived without any anomaly	> 1000 mg/kg			
CCCCCCCCCC(=O)OC(C)C(C)OC(=O)C=Cc1ccccc1 (centres unmarked) [Compound No. 25]	95%	all the mice lived without any anomaly	> 1000 mg/kg			
CCCCCC(=O)OC(C)C(C)OC(=O)C=Cc1ccc(C)cc1 (centres unmarked) [Compound No. 31]	91%	all the mice lived without any anomaly	> 1000 mg/kg			
CCCCCCCCCCC(=O)OC(C)C(C)OC(=O)C=Cc1ccc(OC)cc1 (centres unmarked) [Compound No. 35]	77%	all the mice lived without any anomaly	> 1000 mg/kg			
CCCCCCCCCCC(=O)OC(C)C(C)OC(=O)C=Cc1cc(OC)c(OC)c(OC)c1 (centres unmarked) [Compound No. 40]	99%					
CCCCCC(=O)OC(C)C(C)OC(=O)c1cc(OC)c(OC)c(OC)c1 (centres unmarked) [Compound No. 62]	50%	all the mice lived without any anomaly	> 1000 mg/kg			
CCCCCCCCCCC(=O)OC(C)C(C)OC(=O)c1cc(OC)c(OC)c(OC)c1 (centres unmarked) [Compound No. 68]	89.3%	all the mice lived without any anomaly	> 1000 mg/kg			
CCCCCCCCCCC(=O)OC(C)C(C)OC(=O)CCc1ccccc1 (centres unmarked) [Compound No. 70]	45.9%	all the mice lived without any anomaly	> 1000 mg/kg			
CCCCCCCCCCC(=O)OC(C)C(C)OC(=O)COc1ccccc1 (centres unmarked) [Compound No. 71]	59.2%	all the mice lived without any anomaly	> 1000 mg/kg			
CCCCCC=CCC=CCCCCCCCC(=O)OC(C)C(C)OC(=O)CCCCCCCC=CCC=CCCCCC (centres unmarked) [compound 15]	47%					

Compound	inhibition in vivo at 200 mg/kg (ulcer; sc, subcutaneously, 5 rats)	survival / anomaly after seven days (ddy male mice)	LD50 at 168 h [1]	inhibition in vivo at 200 mg/kg (ulcer; po, orally, 4 rats)	inhibition in vivo at 300 mg/kg (ulcer; sc, 300 mg/kg, subcutaneously, 5 rats)	antitumor effect (tumor)
CCC=CCC=CCC=CCCCCCCCC(=O)OC(C)C(C)OC(=O)CCCCCCCC=CCC=CCC=CCC (centres unmarked) [compound 16]	86%					
CCCCCCCCCCC(=O)OC(C)C(C)OC(=O)CCCCC (centres unmarked) [compound 17]	37%					
CCCCCCCC/C=C\CCCCCCCC(=O)OC(C)C(C)OC(=O)CCCCCCCCCC (centres unmarked) [compound 21]		all the mice lived without any anomaly	> 1000 mg/kg			
CCCCCCCCC(=O)OC(C)C(C)OC(=O)C=Cc1ccccc1 (centres unmarked) [compound 24]	90%	all the mice lived without any anomaly	> 1000 mg/kg			
C=CCCCCCCCCC(=O)OC(C)C(C)OC(=O)C=Cc1ccccc1 (centres unmarked) [compound 28]	62%	all the mice lived without any anomaly	> 1000 mg/kg			
CCCCCC(=O)OC(C)C(C)OC(=O)C=Cc1ccc(OC)cc1 (centres unmarked) [compound 34]	75%	all the mice lived without any anomaly	> 1000 mg/kg			
CCCCCC(=O)OC(C)C(C)OC(=O)C=Cc1ccc(Cl)cc1 (centres unmarked) [compound 37]	85%	all the mice lived without any anomaly	> 1000 mg/kg			
CCCCCCCC(=O)OC(C)C(C)OC(=O)C(C#N)=Cc1ccccc1 (centres unmarked) [compound 45]	84%	all the mice lived without any anomaly	> 1000 mg/kg			
CCCCCCCCC(=O)OC(C)C(C)OC(=O)C(C#N)=Cc1ccccc1 (centres unmarked) [compound 46]	56%	all the mice lived without any anomaly	> 1000 mg/kg			
CCCCCCCCCCC(=O)OC(C)C(C)OC(=O)C(C#N)=Cc1ccccc1 (centres unmarked) [compound 48]		all the mice lived without any anomaly	> 1000 mg/kg	84%	96%	
CCCCCC(=O)OC(C)C(C)OC(=O)C(C)=Cc1ccccc1 (centres unmarked) [compound 54]	87%	all the mice lived without any anomaly	> 1000 mg/kg			
CC(=Cc1ccccc1)C(=O)OC(C)C(C)OC(=O)C(C)=Cc1ccccc1 (centres unmarked) [compound 57]	80%	all the mice lived without any anomaly	> 1000 mg/kg			
CCCCCC(=O)OC(C)C(C)OC(=O)c1ccc(OC)cc1 (centres unmarked) [compound 60]	41.4%	all the mice lived without any anomaly	> 1000 mg/kg			
CCCCCCCCCCC(=O)OC(C)C(C)OC(=O)c1ccccc1 (centres unmarked) [compound 64]	41.3%	all the mice lived without any anomaly	> 1000 mg/kg			
coixenolide						has an antitumor effect
